Each structure is given as a SMILES string.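 Cells were grown in 96-well plates and exposed to each compound for 48 hours at five concentrations; endpoints were interpolated linearly between bracketing concentrations, or set to the highest concentration if not reached. Here, GI50 denotes the concentration required for 50% inhibition of growth. The concentration for full growth arrest is given as TGI.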

Among the test systems are HL-60(TB) leukemia; NCI-H23 lung; IGROV1 ovarian; OVCAR-8 ovarian; LOX IMVI melanoma; MDA-MB-231 breast; U251 CNS; RXF 393 renal.
What all share (assay): NCI tumour cell line growth inhibition, 48 h

As to `CC[C@]1(O)CC2CN(CCc3c([nH]c4ccccc34)[C@@](C(=O)OC)(c3cc4c(cc3OC)N(C)[C@H]3[C@@](O)(C(=O)OC)[C@H](OC(C)=O)[C@]5(CC)C=CCN6CC[C@]43[C@@H]65)C2)C1` (stereo partly specified), the GI50 in the assay with HL-60(TB) leukemia was less than 0.005 µM; in the assay with NCI-H23 lung it was less than 0.005 µM; with IGROV1 ovarian, 0.00517 µM; in the assay with OVCAR-8 ovarian it was less than 0.005 µM; in the assay on LOX IMVI melanoma, less than 0.005 µM; in the assay with MDA-MB-231 breast, less than 0.005 µM. For the same compound, the GI50 in the assay on U251 CNS is less than 0.005 µM. Further, the TGI was less than 0.005 µM in the assay on HL-60(TB) leukemia; 26.7 µM in the assay with NCI-H23 lung; greater than 30 µM in the assay with IGROV1 ovarian; greater than 34.6 µM with OVCAR-8 ovarian; 8.01 µM in the assay with LOX IMVI melanoma; 0.417 µM with MDA-MB-231 breast. Moreover, in the assay on U251 CNS, the TGI turned out to be 6.5 µM.
Regarding `C[C@@H]1C=C(CCCCCCCCCCC[C@H](O)[C@@H]2CCC(=O)O2)C(=O)O1`, the GI50 with NCI-H23 lung is 24.2 µM; in the assay with IGROV1 ovarian, 13.7 µM; with OVCAR-8 ovarian it was 23.4 µM; in the assay on RXF 393 renal it was 47.2 µM; with MDA-MB-231 breast it was 19.4 µM; with U251 CNS, 24.5 µM. In addition, the TGI was 99.1 µM with NCI-H23 lung; 67.9 µM in the assay on IGROV1 ovarian; 69 µM in the assay with OVCAR-8 ovarian; greater than 100 µM in the assay with RXF 393 renal; 88.7 µM in the assay on MDA-MB-231 breast; 81.7 µM with U251 CNS.
Turning to `C1CC[N-]CC1.C1CC[N-]CC1.C1CC[N-]CC1.C1CC[N-]CC1.[Cl][Rh][Cl]`, the GI50 in the assay with IGROV1 ovarian was 7.85 µM; with OVCAR-8 ovarian it was 4.07 µM; in the assay with LOX IMVI melanoma, 10.2 µM; with RXF 393 renal, 13.8 µM; in the assay with MDA-MB-231 breast, 21.5 µM; in the assay on U251 CNS, 4.72 µM. In addition, the TGI is 76.8 µM in the assay with IGROV1 ovarian; greater than 100 µM in the assay with OVCAR-8 ovarian; greater than 100 µM in the assay on LOX IMVI melanoma; 81.1 µM in the assay on RXF 393 renal; greater than 100 µM in the assay on MDA-MB-231 breast; 23.8 µM with U251 CNS.
Turning to `CSc1nc2c(c(=O)[nH]1)N=C1c3ccccc3C(=O)C1C(c1ccc(F)cc1)N2` (stereo unspecified), the GI50 with HL-60(TB) leukemia is 6.54 µM; in the assay on NCI-H23 lung, 13.5 µM; in the assay on IGROV1 ovarian, 11.3 µM; in the assay with OVCAR-8 ovarian, 13.1 µM; in the assay on LOX IMVI melanoma it was 8.78 µM; in the assay with RXF 393 renal, 14.5 µM. Moreover, the GI50 with MDA-MB-231 breast was 12.6 µM; with U251 CNS, 5.43 µM. The TGI is greater than 100 µM with HL-60(TB) leukemia; 55.9 µM in the assay on NCI-H23 lung; greater than 100 µM in the assay with IGROV1 ovarian; 35.4 µM in the assay with OVCAR-8 ovarian; 30 µM with LOX IMVI melanoma; 36.6 µM in the assay with RXF 393 renal. Further, the TGI was greater than 100 µM with MDA-MB-231 breast and 19.3 µM with U251 CNS.
In the case of `CCOP(=O)(OCC)C(NC(c1ccccc1)c1ccccc1)c1ccccc1` (stereo unspecified), the GI50 with NCI-H23 lung is 14.4 µM; with OVCAR-8 ovarian, 16.3 µM; in the assay on LOX IMVI melanoma it was 14 µM; in the assay with MDA-MB-231 breast it was 10.6 µM; with U251 CNS, 14.5 µM. Further, the TGI with NCI-H23 lung turned out to be 28.7 µM; in the assay on OVCAR-8 ovarian it was 33.6 µM; in the assay on LOX IMVI melanoma it was 28.5 µM; in the assay on MDA-MB-231 breast, 26.3 µM; with U251 CNS it was 28.5 µM.
In the case of `CC(=O)O[C@H]1C(=O)[C@@]2(C)C(C(OC(=O)c3ccccc3)[C@]3(O)CC(OC(=O)[C@H](OC(=O)CCC(=O)O)C(NC(=O)c4ccccc4)c4ccccc4)C(C)=C1C3(C)C)C1(OC(C)=O)COC1C[C@@H]2OC(=O)CCC(=O)O` (stereo partly specified), the TGI in the assay on HL-60(TB) leukemia is 0.868 µM; in the assay on NCI-H23 lung, greater than 100 µM; with IGROV1 ovarian it was greater than 100 µM; with OVCAR-8 ovarian, greater than 100 µM; in the assay on LOX IMVI melanoma, greater than 100 µM; in the assay on RXF 393 renal, greater than 26 µM. Moreover, the TGI with U251 CNS was greater than 100 µM.
Consider `NC(=O)c1cnc(N[C@@H]2CCCC[C@@H]2N)nc1Nc1cccc(-n2nccn2)c1`, for which the GI50 is 1.5 µM in the assay on HL-60(TB) leukemia; 3.24 µM with NCI-H23 lung; 4.01 µM in the assay on IGROV1 ovarian; 6.6 µM in the assay with OVCAR-8 ovarian; 2.11 µM in the assay with LOX IMVI melanoma; 2.34 µM in the assay with RXF 393 renal. Besides, the GI50 in the assay on MDA-MB-231 breast is 4.13 µM; in the assay with U251 CNS, 5.87 µM. Moreover, the TGI in the assay with HL-60(TB) leukemia amounted to 3.82 µM; with NCI-H23 lung, 17.2 µM; with IGROV1 ovarian, 14.3 µM; in the assay with OVCAR-8 ovarian it was 20 µM; in the assay on LOX IMVI melanoma, 6.12 µM; in the assay on RXF 393 renal, 8.05 µM. Also, the TGI worked out at 17.3 µM with MDA-MB-231 breast and 18.2 µM in the assay on U251 CNS.
Turning to `O=C(O)C(=Cc1ccnc2ccccc12)C(=O)O`, the TGI in the assay on HL-60(TB) leukemia, in the assay on NCI-H23 lung, with IGROV1 ovarian, in the assay with OVCAR-8 ovarian, in the assay with LOX IMVI melanoma and in the assay with RXF 393 renal was greater than 100 µM in each case. The TGI in the assay on MDA-MB-231 breast and in the assay on U251 CNS was greater than 100 µM in each case.
On to `CC(C)(C)N1CCC1C(N)=O` (stereo unspecified), for which the GI50 in the assay with HL-60(TB) leukemia, in the assay with NCI-H23 lung, with IGROV1 ovarian, in the assay on OVCAR-8 ovarian, with LOX IMVI melanoma and in the assay on RXF 393 renal was greater than 100 µM in each case. Further, the GI50 in the assay with MDA-MB-231 breast and in the assay with U251 CNS was greater than 100 µM each time. In addition, the TGI in the assay on HL-60(TB) leukemia, in the assay on NCI-H23 lung, in the assay on IGROV1 ovarian, with OVCAR-8 ovarian, in the assay with LOX IMVI melanoma and in the assay with RXF 393 renal was greater than 100 µM in each case. For the same compound, the TGI in the assay with MDA-MB-231 breast and with U251 CNS was greater than 100 µM throughout.
Regarding `N[C@@H](Cc1c[nH]c2ccccc12)C(=O)NC1CCN(C(=O)c2c[nH]c3ccccc23)CC1`, the GI50 with HL-60(TB) leukemia was greater than 100 µM; in the assay with NCI-H23 lung, greater than 100 µM; in the assay on IGROV1 ovarian it was 64.2 µM; with OVCAR-8 ovarian, greater than 100 µM; in the assay on LOX IMVI melanoma, 96.1 µM; in the assay on MDA-MB-231 breast it was 75.4 µM. Further, the GI50 with U251 CNS was greater than 100 µM. The TGI with HL-60(TB) leukemia, in the assay with NCI-H23 lung, with IGROV1 ovarian, in the assay with OVCAR-8 ovarian, with LOX IMVI melanoma and in the assay on MDA-MB-231 breast was greater than 100 µM throughout. The compound further had a TGI in the assay on U251 CNS greater than 100 µM.
As to `Cc1ccc2c(c1)nc(C(=O)c1ccco1)c(C(F)(F)F)[n+]2[O-]`, the GI50 in the assay on HL-60(TB) leukemia was 51.4 µM; in the assay with NCI-H23 lung, 91.8 µM; with IGROV1 ovarian, 48 µM; with OVCAR-8 ovarian it was greater than 100 µM; in the assay with LOX IMVI melanoma, greater than 100 µM; in the assay with RXF 393 renal, greater than 100 µM. Further, the GI50 in the assay with MDA-MB-231 breast and in the assay with U251 CNS was greater than 100 µM in each case. Moreover, the TGI in the assay with HL-60(TB) leukemia, with NCI-H23 lung, in the assay with IGROV1 ovarian, in the assay on OVCAR-8 ovarian, in the assay on LOX IMVI melanoma and in the assay with RXF 393 renal was greater than 100 µM throughout. Besides, the TGI in the assay on MDA-MB-231 breast and in the assay on U251 CNS was greater than 100 µM each time.

Source of the values: PubChem BioAssay (NCI).
